From patent publication EP1028947B1, “H3 RECEPTOR LIGANDS OF THE PHENYL-ALKYL-[…]” (SCHERING CORPORATION, priority 1997, dated 1999) come the findings set out here.

One series addresses T1, H3 receptors (Cavia porcellus, UniProt Q9JI35).
T1 construct: The source of the H3 receptors in this experiment was guinea pig brain; from tissue; host or cells: guinea pig brain membranes
The experiment in a line: H3-Receptor Binding Assay. The conditions noted are these: guinea pig brain membranes; 3 nM [3H]R-a-methylhistamine or 3 nM [3H]Na-methylhistamine; 30°C for 30 min; HCl salt of the compound. The procedure: H3-Receptor Binding Assay
The source of the H3 receptors in this experiment was guinea pig brain. The animals weighed 400-600 g. The brain tissue was homogenized using a Polytron in a solution of 50 mM Tris, pH 7.5. The final concentration of tissue in the homogenization buffer was 10% w/v. The homogenates were centrifuged at 1,000 x g for 10 min. in order to remove clumps of tissue and debris. The resulting supematants were then centrifuged at 50,000 x g for 20 min. in order to sediment the membranes, which were next washed three times in homogenization buffer (50,000 x g for 20 min. each). The membranes were frozen and stored at -70°C until needed.
The compound to be tested was dissolved in DMSO and then diluted into the binding buffer (50 mM Tris, pH 7.5) such that the final concentration was 2 µg/ml with 0.1% DMSO. Membranes were then added (400 µg of protein) to the reaction tubes. The reaction was started by the addition of 3 nM [^3H]R-a-methylhistamine (8.8 Ci/mmol) or 3 nM [^3H]N^a-methylhistamine (80 Ci/mmol) and continued under incubation at 30°C for 30 min. Bound ligand was separated from unbound ligand by filtration, and the amount of radioactive ligand bound to the membranes was quantitated by liquid scintillation spectrometry. All incubations were performed in duplicate and the standard error was always less than 10%. The Compound was serially diluted to determine a Ki (nM). […]

Series [1] in a line: Blood levels of the compound (no method described). Type of series: in vivo. The settings on record: compared with the preferred compounds of WO 95/14007; statement in words, no data.

T1 sequence (Q9JI35 whole entry): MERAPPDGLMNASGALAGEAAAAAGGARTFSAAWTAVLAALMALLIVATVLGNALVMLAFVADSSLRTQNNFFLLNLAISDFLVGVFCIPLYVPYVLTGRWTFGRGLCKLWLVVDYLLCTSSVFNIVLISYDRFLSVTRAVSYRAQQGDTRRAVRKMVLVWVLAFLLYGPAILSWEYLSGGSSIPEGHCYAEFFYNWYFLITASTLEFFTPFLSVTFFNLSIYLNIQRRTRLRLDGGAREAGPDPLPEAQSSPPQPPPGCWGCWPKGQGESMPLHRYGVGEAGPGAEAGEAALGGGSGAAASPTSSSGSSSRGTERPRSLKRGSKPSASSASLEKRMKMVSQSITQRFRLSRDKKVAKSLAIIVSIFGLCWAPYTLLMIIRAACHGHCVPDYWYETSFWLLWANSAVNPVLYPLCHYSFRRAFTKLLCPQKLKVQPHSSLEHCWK

On to `O=C(NCc1ccc(Cc2c[nH]cn2)cc1)Nc1cc(Cl)cc(Cl)c1` [compound of the present invention], for which, on H3 receptors, the Ki turned out to be 4 nM. In series [1], the “blood levels of the compound” value is listed as “higher blood levels”.
